From patent US10968199B2, “Cycloalkyl-containing apoptosis signal-regulating kinase 1 inhibitors and methods of use thereof” (ENANTA PHARMACEUTICALS, INC., priority 2018, dated 2021)
pIC50: −log10 of the molar value.

Target: ASK1 kinase (Homo sapiens (Human), UniProt Q99683)
Test: HTRF KinEASE assay of ASK1 kinase inhibition
Assay type: biochemical
Settings: HTRF KinEASE-STK TR-FRET; 5 nM ASK1, 1 uM STK3 peptide substrate, 100 uM ATP, 3 hours
Description: The ability (IC50) of compounds to inhibit ASK1 kinase activity was determined by HTRF® KinEASE™ Assay System.
ASK1 was purchased from Thermofisher (Catalogue #PV4011), ATP was purchased from Sigma (Catalogue #A7699), HTRF® KinEASE™ Assay System was obtained from Cisbio (Bedford, Mass.). ½ Area plate was purchased from Perkin Elmer (Catalogue # #6005560). HTRF® KinEASE™-STK is a generic method for measuring serine/threonine kinase activities using a time-resolved fluorescence resonance energy transfer (TR-FRET) immunoassay. The IC50 value for each compound was determined in the presence of compound (various concentration from 0 to 10 μM) and a fixed amount of ATP and peptide substrates. The test compound, 1 uM STK3 peptide substrate, and 5 nM of ASK1 kinase are incubated with kinase reaction buffer containing 50 mM HEPES pH 7.5, 0.01% BRIJ-35, 10 mM MgCl2, and 1 mM EGTA for 30 minutes. 100 uM ATP is added to start kinase reaction and incubated for 3 hours. The STK3-antibody labeled with Eu^3+-Cryptate and 125 nM streptavidin-XL665 are mixed in a single addition with stop reagents provided by the Cisbio kit used to stop the kinase reaction. Fluorescence is detected using an Envision Multilabeled 2014 reader from PerkinElmer. The Fluorescence is measured at 615 nm (Cryptate) and 665 nm (XL665) and a ratio of 665 nm/615 nm is calculated for each well. The resulting TR-FRET is proportional to the phosphorylation level. Staurosporine was used as the positive control. IC50 was determined by XLfit 5.3.
By using above method, the inhibition of ASK1 was tested for the compound of formula (I). IC50 ranges are as follows: A<1 nM; 1 nM<B<10 nM; C>10 nM.

ASK1 kinase, sequence (Q99683 whole entry): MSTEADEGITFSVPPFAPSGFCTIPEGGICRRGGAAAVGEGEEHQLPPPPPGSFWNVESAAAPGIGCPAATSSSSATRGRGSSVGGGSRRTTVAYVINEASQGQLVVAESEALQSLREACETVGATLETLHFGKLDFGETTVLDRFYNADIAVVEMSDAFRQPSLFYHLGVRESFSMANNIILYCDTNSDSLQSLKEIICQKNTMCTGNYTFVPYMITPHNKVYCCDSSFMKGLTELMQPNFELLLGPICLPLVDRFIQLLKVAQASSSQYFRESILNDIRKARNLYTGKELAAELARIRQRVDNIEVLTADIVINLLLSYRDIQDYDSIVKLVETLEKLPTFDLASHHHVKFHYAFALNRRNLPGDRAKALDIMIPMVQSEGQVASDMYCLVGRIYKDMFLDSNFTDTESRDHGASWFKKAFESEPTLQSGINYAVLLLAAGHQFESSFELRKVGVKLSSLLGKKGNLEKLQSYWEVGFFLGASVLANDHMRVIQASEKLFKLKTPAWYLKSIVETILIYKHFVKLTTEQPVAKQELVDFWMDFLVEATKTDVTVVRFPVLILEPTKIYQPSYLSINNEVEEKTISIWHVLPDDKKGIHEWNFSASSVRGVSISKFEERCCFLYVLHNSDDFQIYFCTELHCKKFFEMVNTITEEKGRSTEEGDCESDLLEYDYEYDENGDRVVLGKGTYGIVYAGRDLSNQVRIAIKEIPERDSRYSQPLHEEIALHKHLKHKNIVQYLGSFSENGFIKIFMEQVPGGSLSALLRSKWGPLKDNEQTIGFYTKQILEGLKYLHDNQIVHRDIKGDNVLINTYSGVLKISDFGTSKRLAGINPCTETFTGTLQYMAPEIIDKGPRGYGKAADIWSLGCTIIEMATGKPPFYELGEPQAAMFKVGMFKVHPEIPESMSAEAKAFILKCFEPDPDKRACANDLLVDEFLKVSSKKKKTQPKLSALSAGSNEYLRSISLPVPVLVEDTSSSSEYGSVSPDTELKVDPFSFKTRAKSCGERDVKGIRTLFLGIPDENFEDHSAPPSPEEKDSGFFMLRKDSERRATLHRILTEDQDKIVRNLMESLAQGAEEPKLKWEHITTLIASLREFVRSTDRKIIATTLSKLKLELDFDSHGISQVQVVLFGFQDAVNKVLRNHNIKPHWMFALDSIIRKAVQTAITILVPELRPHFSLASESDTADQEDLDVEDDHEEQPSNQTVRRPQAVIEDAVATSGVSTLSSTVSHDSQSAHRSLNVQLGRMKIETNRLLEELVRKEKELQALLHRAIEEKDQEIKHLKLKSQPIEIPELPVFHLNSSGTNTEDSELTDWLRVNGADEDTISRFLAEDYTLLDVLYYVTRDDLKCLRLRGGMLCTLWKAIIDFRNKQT

`CCOC(=O)C1CC1c1cc(C(=O)Nc2cccc(-c3nncn3C(C)C)n2)c(F)cc1C` (centres unmarked) [Example 1, ethyl 2-(4-fluoro-5-((6-(4-isopropyl-4H-1,2,4-triazol-3-yl)pyridin-2-yl)carbamoyl)-2-methylphenyl)cyclopropane-1-carboxylate] showed a pIC50 of 8.00 to 9.00.
`Cc1cc(F)c(C(=O)Nc2cccc(-c3nncn3C(C)C)n2)cc1C1CC1C(=O)O` (centres unmarked) [Example 2, 2-(4-fluoro-5-((6-(4-isopropyl-4H-1,2,4-triazol-3-yl)pyridin-2-yl)carbamoyl)-2-methylphenyl)cyclopropane-1-carboxylic acid] was tested, and the pIC50 was < 8.00.
`Cc1cc(F)c(C(=O)Nc2cccc(-c3nncn3C(C)C)n2)cc1C1CC1C(=O)NC1CC1` (centres unmarked) [Example 3, 5-(2-(cyclopropylcarbamoyl)cyclopropyl)-2-fluoro-N-(6-(4-isopropyl-4H-1,2,4-triazol-3-yl)pyridin-2-yl)-4-methylbenzamide] was tested, and the pIC50 was < 8.00.
For `Cc1cc(F)c(C(=O)Nc2cccc(-c3nncn3C(C)C)n2)cc1C1CC1NC(=O)OC(C)(C)C` (centres unmarked) [Example 4, tert-butyl (2-(4-fluoro-5-((6-(4-isopropyl-4H-1,2,4-triazol-3-yl)pyridin-2-yl)carbamoyl)-2-methylphenyl)cyclopropyl)carbamate], the pIC50 was 8.00 to 9.00.
In the case of `Cc1cc(F)c(C(=O)Nc2cccc(-c3nncn3C(C)C)n2)cc1C1CC1NC(=O)N1CCC(F)(F)C1` (centres unmarked) [Example 5, 3,3-difluoro-N-(2-(4-fluoro-5-((6-(4-isopropyl-4H-1,2,4-triazol-3-yl)pyridin-2-yl)carbamoyl)-2-methylphenyl)cyclopropyl)pyrrolidine-1-carboxamide], the pIC50 was < 8.00.
With `Cc1cc(F)c(C(=O)Nc2cccc(-c3nncn3C(C)C)n2)cc1C1CC1NC(=O)c1ccc(F)cc1` (centres unmarked) [Example 6, 2-fluoro-5-(2-(4-fluorobenzamido)cyclopropyl)-N-(6-(4-isopropyl-4H-1,2,4-triazol-3-yl)pyridin-2-yl)-4-methylbenzamide] the pIC50 was < 8.00.
`Cc1cc(F)c(C(=O)Nc2cccc(-c3nncn3C(C)C)n2)cc1C1CC1NS(=O)(=O)N(C)C` (centres unmarked) [Example 7, 5-(2-((N,N-dimethylsulfamoyl)amino)cyclopropyl)-2-fluoro-N-(6-(4-isopropyl-4H-1,2,4-triazol-3-yl)pyridin-2-yl)-4-methylbenzamide] was tested, and the pIC50 was < 8.00.
`Cc1cnc(C(=O)Nc2cccc(-c3nncn3C(C)C)n2)cc1C1CC1NC(=O)OC(C)(C)C` (centres unmarked) [Example 8, tert-butyl (2-(2-((6-(4-isopropyl-4H-1,2,4-triazol-3-yl)pyridin-2-yl)carbamoyl)-5-methylpyridin-4-yl)cyclopropyl)carbamate] was tested, and the pIC50 was < 8.00.
`Cc1cnc(C(=O)Nc2cccc(-c3nnnn3[C@H](C)CO)n2)cc1C1CC(NC(=O)OC(C)(C)C)C1` (stereo partly drawn) [Example 9, tert-butyl (R)-(3-(2-((6-(1-(1-hydroxypropan-2-yl)-1H-tetrazol-5-yl)pyridin-2-yl)carbamoyl)-5-methylpyridin-4-yl)cyclobutyl)carbamate] was tested, and the pIC50 was < 8.00.
In the case of `Cc1cc(F)c(C(=O)Nc2cccc(-c3nncn3C(C)C)n2)cc1C1CC1NC(=O)OCC(F)(F)F` (centres unmarked) [Example 10], the pIC50 was 8.00 to 9.00.
Work on `Cc1cc(F)c(C(=O)Nc2cccc(-c3nncn3C(C)C)n2)cc1C1CC1NS(=O)(=O)C1CC1` (centres unmarked) [Example 11] yielded a pIC50 of 8.00 to 9.00.
For `Cc1cc(F)c(C(=O)Nc2cccc(-c3nncn3C(C)C)n2)cc1C1CC1C(=O)N1CCC(F)(F)C1` (centres unmarked) [Example 12], the pIC50 was < 8.00.
`Cc1cc(F)c(C(=O)Nc2cccc(-c3nncn3C(C)C)n2)cc1C1CC1NC(=O)N(C)CCC(F)(F)F` (centres unmarked) [Example 13] was tested, and the pIC50 was < 8.00.
For `Cc1cc(F)c(C(=O)Nc2cccc(-c3nncn3C(C)C)n2)cc1C1CC1NC(=O)C(C)(C)C` (centres unmarked) [Example 14], the pIC50 was < 8.00.
`CCOC(=O)C1CC1c1cc(C(=O)Nc2cccc(-c3nncn3C(C)C)n2)ncc1C` (centres unmarked) [Example 15] was tested, and the pIC50 was 8.00 to 9.00.
For `COc1cc(C)c(C2CC2C(=O)N2CCC(F)(F)C2)cc1C(=O)Nc1cccc(-c2nncn2C(C)C)n1` (centres unmarked) [Example 16], the pIC50 was 8.00 to 9.00.
In the case of `COc1cc(C)c(C2CC2NC(=O)OCC(F)(F)F)cc1C(=O)Nc1cccc(-c2nncn2C(C)C)n1` (centres unmarked) [Example 17], the pIC50 was 8.00 to 9.00.
For `COc1cc(C)c(C2CC2NC(=O)N(C)CCC(F)(F)F)cc1C(=O)Nc1cccc(-c2nncn2C(C)C)n1` (centres unmarked) [Example 18], the pIC50 was 8.00 to 9.00.
`Cc1cnc(C(=O)Nc2cccc(-c3nncn3C(C)C)n2)cc1C1CC1NC(=O)OCC(F)(F)F` (centres unmarked) [Example 19] was tested, and the pIC50 was < 8.00.
`COc1cc(C)c(C2CC2NS(=O)(=O)N(C)C)cc1C(=O)Nc1cccc(-c2nncn2C(C)C)n1` (centres unmarked) [Example 20] was tested, and the pIC50 was 8.00 to 9.00.
`COc1cc(C)c(C2CC2NS(=O)(=O)CCC(F)(F)F)cc1C(=O)Nc1cccc(-c2nncn2C(C)C)n1` (centres unmarked) [Example 21] showed a pIC50 of 8.00 to 9.00.
In the case of `COc1cc(C)c(C2CC2NC(=O)c2ccc(F)cc2)cc1C(=O)Nc1cccc(-c2nncn2C(C)C)n1` (centres unmarked) [Example 22], the pIC50 was 8.00 to 9.00.
In the case of `COc1cc(C)c(C2CC2NC(=O)C(C)(C)C)cc1C(=O)Nc1cccc(-c2nncn2C(C)C)n1` (centres unmarked) [Example 23], the pIC50 was 8.00 to 9.00.
With `Cc1cc(F)c(C(=O)Nc2cccc(-c3nncn3[C@H](C)CO)n2)cc1C1CC1C(=O)N1CCC(F)(F)C1` (some centres unmarked) [Example 24] the pIC50 was 8.00 to 9.00.
For `Cc1cc(F)c(C(=O)Nc2cccc(-c3nncn3[C@H](C)CO)n2)cc1C1CC1NC(=O)OCC(F)(F)F` (some centres unmarked) [Example 25], the pIC50 was < 8.00.
`Cc1cc(F)c(C(=O)Nc2cccc(-c3nncn3[C@H](C)CO)n2)cc1C1CC1NC(=O)N(C)CCC(F)(F)F` (some centres unmarked) [Example 26] gave a pIC50 of 8.00 to 9.00.
`Cc1cc(F)c(C(=O)Nc2cccc(-c3nncn3[C@H](C)CO)n2)cc1C1CC1NS(=O)(=O)CCC(F)(F)F` (some centres unmarked) [Example 27] showed a pIC50 of 8.00 to 9.00.
Work on `Cc1cc(F)c(C(=O)Nc2cccc(-c3nncn3[C@H](C)CO)n2)cc1C1CC1NS(=O)(=O)N(C)C` (some centres unmarked) [Example 28] yielded a pIC50 of 8.00 to 9.00.
In the case of `Cc1cc(F)c(C(=O)Nc2cccc(-c3nncn3[C@H](C)CO)n2)cc1C1CC1NC(=O)C(C)(C)C` (some centres unmarked) [Example 29], the pIC50 was 8.00 to 9.00.
